{
  "source": "ChEMBL document CHEMBL3639079",
  "about": "“Hydroxamic acid derivative” (2015)",
  "target": "T1, UDP-3-O-acyl-N-acetylglucosamine deacetylase (Pseudomonas aeruginosa (strain ATCC 15692 / PAO1 / 1C / PRS 101 / LMG12228), UniProt P47205)",
  "T1 sequence (P47205 whole entry)": "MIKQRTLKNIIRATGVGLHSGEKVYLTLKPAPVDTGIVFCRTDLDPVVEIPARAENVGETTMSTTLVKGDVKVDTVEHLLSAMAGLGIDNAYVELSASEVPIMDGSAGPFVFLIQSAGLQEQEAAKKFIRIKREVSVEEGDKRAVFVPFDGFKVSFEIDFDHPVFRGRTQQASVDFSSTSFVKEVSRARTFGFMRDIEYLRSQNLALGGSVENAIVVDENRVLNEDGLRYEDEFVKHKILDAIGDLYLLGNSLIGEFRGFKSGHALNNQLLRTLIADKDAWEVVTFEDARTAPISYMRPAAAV",
  "description": "The reaction was performed in 40 mmol/L of Hepes buffer solution (pH 8.0) supplemented with 0.02% Bridge 35 and 80 µmol/L of dithiothreitol. To terminate the reaction, 0.2 mol/L of borax was added to the reaction mixture.",
  "data": [
    {"smiles": "CNC(=O)C(C(=O)NO)N(C)C(=O)c1ccc(-c2ccc(OCCCN3CCOCC3)cc2)cc1", "note": "(stereo unspecified)", "values": [
      {"measurement": "IC50", "value": 6.7, "unit": "nM"}
    ]}
  ]
}
